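Tested at 5 concentrations; 48 h exposure; 96-well plates; endpoints linearly interpolated, else capped at highest concentration. Here, GI50 denotes the concentration required for 50% inhibition of growth.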 Calls of active or inactive are those of the source. Rule as the data show it: active = GI50 up to about 1.1 µM and inactive = higher.
What was measured:
Test in all cases: NCI anticancer screen, dose series, 48 h
[1] = tested on: CCRF-CEM
[2] = tested on: U-251
[3] = tested on: EKVX
[4] = tested on: HOP-62
[5] = tested on: SK-MEL-2
[6] = tested on: NCI-H226
[7] = tested on: SNB-75
[8] = tested on: HT-29
[9] = tested on: SN12C
[10] = tested on: DMS-273
[11] = tested on: HCT-116
[12] = tested on: SNB-19
[13] = tested on: SF-268
[14] = tested on: OVCAR-5
[15] = tested on: OVCAR-3
[16] = tested on: SR
[17] = tested on: MDA-MB-435
[18] = tested on: MDA-MB-231
[19] = tested on: MDA-N
[20] = tested on: T47D

| Compound | GI50 [1] | GI50 [2] | GI50 [3] | GI50 [4] | GI50 [5] | GI50 [6] | GI50 [7] | GI50 [8] | GI50 [9] | GI50 [10] | GI50 [11] | GI50 [12] | GI50 [13] | GI50 [14] | GI50 [15] | GI50 [16] | GI50 [17] | GI50 [18] | GI50 [19] | GI50 [20] |
| --- | --- | --- | --- | --- | --- | --- | --- | --- | --- | --- | --- | --- | --- | --- | --- | --- | --- | --- | --- | --- |
| O=C(Nc1ccc(Br)cc1)C(=O)C(C(=O)c1ccccc1F)C1OC(=O)c2ccccc21 (stereo not given) | 18.6 µM (inactive) | 19.3 µM (inactive) | 81.1 µM (inactive) | 22.8 µM (inactive) | 21.8 µM (inactive) | 3.48 µM (inactive) | 19.7 µM (inactive) | 39.6 µM (inactive) | 27.9 µM (inactive) | 31 µM (inactive) | 17.7 µM (inactive) | 20.3 µM (inactive) | 24.9 µM (inactive) | 48 µM (inactive) | 39.8 µM (inactive) | – | – | – | – | – |
| COc1ccc(N(C)Sc2ccccc2)cc1 | 6.38 µM (inactive) | 32.8 µM (inactive) | – | 95.5 µM (inactive) | 65.5 µM (inactive) | – | – | – | 21.1 µM (inactive) | 34.4 µM (inactive) | 43.7 µM (inactive) | 51.1 µM (inactive) | 27.4 µM (inactive) | > 100 µM (inactive) | 52.4 µM (inactive) | 43.7 µM (inactive) | – | – | – | – |
| O=C(O)CSc1nnc(-c2ccco2)[nH]1 | > 100 µM (inactive) | > 100 µM (inactive) | > 100 µM (inactive) | > 100 µM (inactive) | > 100 µM (inactive) | > 100 µM (inactive) | 95.5 µM (inactive) | > 100 µM (inactive) | > 100 µM (inactive) | > 100 µM (inactive) | > 100 µM (inactive) | > 100 µM (inactive) | – | > 100 µM (inactive) | > 100 µM (inactive) | – | – | – | – | – |
| COC1(C)CCC(OS(C)(=O)=O)CO1 (stereo not given) | > 100 µM (inactive) | > 100 µM (inactive) | > 100 µM (inactive) | > 100 µM (inactive) | > 100 µM (inactive) | > 100 µM (inactive) | > 100 µM (inactive) | > 100 µM (inactive) | > 100 µM (inactive) | – | > 100 µM (inactive) | > 100 µM (inactive) | > 100 µM (inactive) | > 100 µM (inactive) | > 100 µM (inactive) | > 100 µM (inactive) | > 100 µM (inactive) | > 100 µM (inactive) | > 100 µM (inactive) | > 100 µM (inactive) |
| Cc1cc(C23OC4COC(C)(C)OC4C2OC(C)(C)O3)nc2ccccc12 (stereo not given) | 32.1 µM (inactive) | > 100 µM (inactive) | > 100 µM (inactive) | > 100 µM (inactive) | > 100 µM (inactive) | > 100 µM (inactive) | > 100 µM (inactive) | 76.6 µM (inactive) | > 100 µM (inactive) | – | > 100 µM (inactive) | > 100 µM (inactive) | > 100 µM (inactive) | > 100 µM (inactive) | > 100 µM (inactive) | 72.8 µM (inactive) | > 100 µM (inactive) | > 100 µM (inactive) | > 100 µM (inactive) | > 100 µM (inactive) |
| COc1ccc(C(=O)NCCC2=CCCCC2)cc1 | > 100 µM (inactive) | > 100 µM (inactive) | > 100 µM (inactive) | > 100 µM (inactive) | > 100 µM (inactive) | – | > 100 µM (inactive) | > 100 µM (inactive) | > 100 µM (inactive) | > 100 µM (inactive) | > 100 µM (inactive) | > 100 µM (inactive) | > 100 µM (inactive) | > 100 µM (inactive) | > 100 µM (inactive) | > 100 µM (inactive) | – | – | – | – |
| COc1cc2c(cc1OC)[C@H]1C(=O)c3cc4c(cc3[C@H]1N(C)C2=O)OCO4 | 0.366 µM (active) | 1.03 µM (active) | > 100 µM (inactive) | 5.07 µM (inactive) | > 100 µM (inactive) | 1.81 µM (inactive) | 8.77 µM (inactive) | 5.27 µM (inactive) | 2.83 µM (inactive) | – | 2.22 µM (inactive) | 6.35 µM (inactive) | 4.17 µM (inactive) | > 100 µM (inactive) | 19.2 µM (inactive) | 0.557 µM (active) | 16.6 µM (inactive) | 28 µM (inactive) | 12.1 µM (inactive) | > 28.2 µM (inactive) |
| COc1cc(-c2nc3ccccn3c2/N=C/c2cc(Br)cc(Br)c2O)ccc1O | 17.7 µM (inactive) | 15.6 µM (inactive) | 19.1 µM (inactive) | 21.6 µM (inactive) | 22.3 µM (inactive) | 24.1 µM (inactive) | 24 µM (inactive) | 22.3 µM (inactive) | 19.5 µM (inactive) | – | 18.4 µM (inactive) | 26.1 µM (inactive) | 14.3 µM (inactive) | 31.4 µM (inactive) | 15.6 µM (inactive) | 25.9 µM (inactive) | 22.4 µM (inactive) | 15.6 µM (inactive) | 22.4 µM (inactive) | 23.3 µM (inactive) |
| CC(=O)OC1CC2(C)C(=CC1C1SCCS1)CCC1C2CCC2(C)C(OC(C)=O)CCC12 (stereo not given) | > 100 µM (inactive) | 32.3 µM (inactive) | > 100 µM (inactive) | 97.5 µM (inactive) | 45.4 µM (inactive) | > 100 µM (inactive) | 13.2 µM (inactive) | > 100 µM (inactive) | > 100 µM (inactive) | – | > 100 µM (inactive) | 37.1 µM (inactive) | 26.5 µM (inactive) | > 100 µM (inactive) | > 100 µM (inactive) | > 100 µM (inactive) | > 100 µM (inactive) | 34.9 µM (inactive) | > 100 µM (inactive) | > 100 µM (inactive) |
| CCCS(=O)OC1C(C2COC(C)(C)O2)OC2OC(C)(C)OC21 (stereo not given) | 3.15 µM (inactive) | 8.26 µM (inactive) | 16.4 µM (inactive) | 13.6 µM (inactive) | 16.1 µM (inactive) | 21.7 µM (inactive) | 12.9 µM (inactive) | 3.89 µM (inactive) | 12.5 µM (inactive) | – | 6.07 µM (inactive) | 15 µM (inactive) | 17.9 µM (inactive) | 12.2 µM (inactive) | 15.1 µM (inactive) | 0.497 µM (active) | 6.31 µM (inactive) | 13.1 µM (inactive) | 15.1 µM (inactive) | 20.9 µM (inactive) |
| CC1OC(O[C@H]2CC[C@]3(C=O)[C@H]4CC[C@]5(C)[C@H](C6=CC(=O)OC6)CC[C@]5(O)[C@@H]4C=C[C@]3(O)C2)CC(O)C1O (stereo not given in full) | 0.102 µM (active) | 0.355 µM (active) | 0.261 µM (active) | 0.188 µM (active) | 0.505 µM (active) | 0.514 µM (active) | 0.484 µM (active) | 0.321 µM (active) | 0.117 µM (active) | – | 0.0885 µM (active) | 0.942 µM (active) | 0.176 µM (active) | 0.547 µM (active) | 0.15 µM (active) | 0.0933 µM (active) | 0.346 µM (active) | 0.433 µM (active) | 0.332 µM (active) | 0.524 µM (active) |
| O=C1c2ccccc2CC12Cc1ccc3c(c1C2)CCC3 (stereo not given) | 16.8 µM (inactive) | 16.9 µM (inactive) | 16.9 µM (inactive) | 23.3 µM (inactive) | 15.9 µM (inactive) | 22.8 µM (inactive) | 20.3 µM (inactive) | 13.3 µM (inactive) | 26.7 µM (inactive) | – | 16.9 µM (inactive) | 48.1 µM (inactive) | 30 µM (inactive) | 17.2 µM (inactive) | 17.4 µM (inactive) | 14 µM (inactive) | 16.1 µM (inactive) | 12 µM (inactive) | 19.8 µM (inactive) | 19.1 µM (inactive) |
| S=c1cc(-c2ccc3c(c2)OCO3)s[nH]1 | > 100 µM (inactive) | > 100 µM (inactive) | > 100 µM (inactive) | > 100 µM (inactive) | > 100 µM (inactive) | 58.5 µM (inactive) | 48.4 µM (inactive) | > 100 µM (inactive) | > 100 µM (inactive) | – | > 100 µM (inactive) | > 100 µM (inactive) | > 100 µM (inactive) | > 100 µM (inactive) | > 100 µM (inactive) | > 100 µM (inactive) | > 100 µM (inactive) | > 100 µM (inactive) | > 100 µM (inactive) | 89.7 µM (inactive) |
| CN(C)CCNC(=O)c1cccc2c1nc(-c1ccccn1)c1ccccc12 | 13.5 µM (inactive) | 16.3 µM (inactive) | 22.7 µM (inactive) | 15.1 µM (inactive) | 18.8 µM (inactive) | > 10 µM (inactive) | 21.3 µM (inactive) | 16.3 µM (inactive) | 23.9 µM (inactive) | 13.5 µM (inactive) | 10.3 µM (inactive) | 30.7 µM (inactive) | 23.3 µM (inactive) | 14.8 µM (inactive) | 17.4 µM (inactive) | – | – | – | – | – |
| Oc1ccc(/C=N/NC(=S)Nc2cccnc2)nc1 | 3.27 µM (inactive) | 6.22 µM (inactive) | 12.6 µM (inactive) | 12 µM (inactive) | 7.08 µM (inactive) | 33.3 µM (inactive) | 19.6 µM (inactive) | 5.33 µM (inactive) | 6.93 µM (inactive) | – | 4.49 µM (inactive) | 22.7 µM (inactive) | 1.39 µM (inactive) | 40.3 µM (inactive) | 1.07 µM (active) | 0.134 µM (active) | 5.9 µM (inactive) | 2.32 µM (inactive) | 13.4 µM (inactive) | 8.69 µM (inactive) |
| c1cc(C2=NCCO2)c2ccsc2c1 | > 100 µM (inactive) | > 100 µM (inactive) | > 100 µM (inactive) | > 100 µM (inactive) | > 100 µM (inactive) | > 100 µM (inactive) | 0.0573 µM (active) | > 100 µM (inactive) | > 100 µM (inactive) | – | > 100 µM (inactive) | > 100 µM (inactive) | > 100 µM (inactive) | > 100 µM (inactive) | > 100 µM (inactive) | > 100 µM (inactive) | > 100 µM (inactive) | > 100 µM (inactive) | > 100 µM (inactive) | > 100 µM (inactive) |
